The Deep4Chem optical property database

Assay: solvent given as SMILES

`N#Cc1ccc(/C=C/C=C/C2=NC3C(=O)NC(N)=NC3N2[C@H]2C[C@H](O)[C@@H](CO)O2)cc1` (some centres undefined) gave an absorption maximum (in C1COCCO1) of 395 nm, an absorption maximum (in CC#N) of 387 nm and an absorption maximum (in CO) of 381 nm.
`Cn1c(=O)c(/N=N/c2cc(S(=O)(=O)O)ccc2C(=O)O)c(O)c2ccccc21` showed an absorption maximum (in C1CCOC1) of 408 nm, an absorption maximum (in CC(C)=O) of 407 nm and an absorption maximum (in CCOC(C)=O) of 407 nm. For the same molecule, the absorption maximum (in CO) was 406 nm, the absorption maximum (in CS(C)=O) was 417 nm and the absorption maximum (in Cc1ccccc1) was 421 nm. The absorption maximum (in ClCCl) was 420 nm and the absorption maximum (in O) was 421 nm.
Molecule `Cc1ccc2nc3c(=O)[nH]c(=O)[nH]c3nc2c1` has an absorption maximum (in CC#N) of 370 nm and an absorption maximum (in ClCCCl) of 368 nm.
`CN(C)c1ccc(/C=C/C(=O)O)cc1` showed an absorption maximum (in C1CCCCC1) of 358 nm, an absorption maximum (in C1CCOC1) of 358 nm and an absorption maximum (in C1COCCO1) of 356 nm. The absorption maximum (in CC#N) was 364 nm, the absorption maximum (in CCCCO) was 356 nm and the absorption maximum (in CCCO) was 355 nm. For the same molecule, the absorption maximum (in CCOC(C)=O) was 358 nm, the absorption maximum (in CO) was 357 nm and the absorption maximum (in Cc1ccccc1) was 362 nm. It also gave an absorption maximum (in O) of 323 nm and an absorption maximum (in c1ccccc1) of 365 nm.
`CCCCCCC(CCCCCC)N1C(=O)c2cccc3c(-c4ccc([Si](C)(C)C)cc4)ccc(c23)C1=O` gave an absorption maximum (in CCCCCC) of 343.4 nm, an absorption maximum (in CCCCCCCCCCCCCC) of 344.4 nm and an absorption maximum (in CCCCCCCCCCCO) of 355 nm. The absorption maximum (in CCCCO) was 357.6 nm, the absorption maximum (in CN(C)C=O) was 356 nm and the absorption maximum (in Cc1ccccc1) was 353.4 nm. It also gave an absorption maximum (in ClC(Cl)Cl) of 356 nm.
`CN(C)c1ccc(/C=C/C=C2\CCCC2=O)cc1` showed an absorption maximum (in CC#N) of 409 nm, an absorption maximum (in CC(C)=O) of 416 nm and an absorption maximum (in CC(C)O) of 420 nm. For the same molecule, the absorption maximum (in CCCCCC) was 394 nm, the absorption maximum (in CCCCO) was 425 nm and the absorption maximum (in CCCO) was 422 nm. For the same molecule, the absorption maximum (in CCO) was 422 nm, the absorption maximum (in CCOC(C)=O) was 408 nm and the absorption maximum (in CCOCC) was 399 nm. For the same molecule, the absorption maximum (in CN(C)C=O) was 408 nm, the absorption maximum (in CO) was 420 nm and the absorption maximum (in CS(C)=O) was 416 nm. The absorption maximum (in Cc1ccccc1) was 409 nm, the absorption maximum (in ClC(Cl)(Cl)Cl) was 407 nm and the absorption maximum (in ClC(Cl)Cl) was 404 nm. For the same molecule, the absorption maximum (in ClCCl) was 420 nm, the absorption maximum (in c1ccccc1) was 411 nm and the absorption maximum (in c1ccncc1) was 419 nm.
Work on `COc1ccccc1-c1nc2c3ccccc3c3ccccc3c2o1` yielded an absorption maximum (in Cc1ccccc1) of 364 nm.
For `c1ccc(-c2nc(-c3ccccc3)nc(-c3ccc(-n4c5ccccc5c5cc6c(cc54)c4ccccc4n6-c4ccccc4)cc3)n2)cc1`, the absorption maximum (in Cc1ccccc1) was 403 nm.
For `c1ccc(-c2pc3ccccc3s2)cc1` (centres undefined), the absorption maximum (in CC#N) was 330 nm.
Work on `Cc1cc(C)c(B(c2ccccc2N(c2ccccc2)c2ccccc2)c2c(C)cc(C)cc2C)c(C)c1` yielded an absorption maximum (in Cc1ccccc1) of 415 nm.
Work on `F[B-]1(F)OC(c2ccc(C(F)(F)F)cc2)=Cc2ccc3ccccc3[n+]21` yielded an absorption maximum (in ClC(Cl)Cl) of 424 nm.
Work on `COCCC1=Cc2nc1ccc1[nH]c(cc1CCOC)c1nc(c(NC(=O)CCCC(=O)OC)cc3[nH]c2cc3CCOC)C(CCOC)=C1` yielded an absorption maximum (in Cc1ccccc1) of 670 nm.
`N#Cc1nc(N(Cc2ccc(I)cc2)Cc2ccc(I)cc2)c(C#N)nc1N(Cc1ccc(I)cc1)Cc1ccc(I)cc1` showed an absorption maximum (in ClC(Cl)Cl) of 484 nm.
`c1ccc(B2Nc3cc4c(cc3-c3occc32)NB(c2ccccc2)c2ccoc2-4)cc1` gave an absorption maximum (in ClCCl) of 388 nm.
Work on `CCc1c(C)c2n(c1C)[B-](F)(F)[N+]1=C(NCc3ccc(OC)cc3)C(SC#N)=CC1=C2C` yielded an absorption maximum (in CC#N) of 562 nm, an absorption maximum (in CCCCCC) of 572 nm and an absorption maximum (in CCOC(C)=O) of 565 nm. The absorption maximum (in CO) was 562 nm and the absorption maximum (in ClCCl) was 568 nm.
In the case of `Clc1nnc(O/N=C/c2ccc(N(c3ccccc3)c3ccccc3)cc2)nn1`, the absorption maximum (in ClCCl) is reported as 518 nm.
For `CN1C(=CC2=C([O-])C(=Cc3oc(-c4ccc(-c5ccccc5)cc4)c[n+]3C)C2=O)C(C)(C)c2ccccc21`, the absorption maximum (in ClC(Cl)Cl) was 606 nm.
Molecule `c1ccc([B-]23Oc4ccccc4-c4c5[n+]6c(c([n+]42)-c2ccccc2O3)-c2ccccc2O[B-]6(c2ccccc2)Oc2ccccc2-5)cc1` has an absorption maximum (in ClCCl) of 574 nm.
`COc1cc(OC)cc(C2=CC(c3ccccc3)=C(c3ccccc3)C2)c1` showed an absorption maximum (in ClCCl) of 355 nm.
`CN(C)c1ccc(/C=C/C=N/N=C/c2ccc3ccc4cccc5ccc2c3c45)cc1` showed an absorption maximum (in CC#N) of 426 nm, an absorption maximum (in CC(C)(C)O) of 420 nm and an absorption maximum (in CC(C)=O) of 418 nm. The absorption maximum (in CC(C)O) was 432 nm, the absorption maximum (in CCCCO) was 433 nm and the absorption maximum (in CO) was 434 nm. It also gave an absorption maximum (in CS(C)=O) of 438 nm, an absorption maximum (in ClC(Cl)Cl) of 433 nm and an absorption maximum (in ClCCl) of 430 nm. It also gave an absorption maximum (in O) of 420 nm.
`c1ccc(N(c2ccccc2)c2ccc(-c3cnc(-c4ccncc4)s3)cc2)cc1` showed an absorption maximum (in CO) of 403 nm.
`Cc1cccc(-c2[nH]c(=O)n3c2-c2ccccc2C3=O)c1O` gave an absorption maximum (in CC#N) of 391 nm, an absorption maximum (in CO) of 395 nm and an absorption maximum (in ClCCl) of 392 nm.
Molecule `Nc1ccc(/C=C/c2cccnc2)cc1` has an absorption maximum (in CC#N) of 342 nm and an absorption maximum (in CCCCCC) of 336 nm.
Molecule `CCCc1cc2c(s1)-c1cc3c(cc1NB2c1ccccc1)-c1sc(CCC)cc1B(c1ccccc1)N3` has an absorption maximum (in ClCCl) of 411 nm.
Molecule `N#Cc1nc(N(Cc2ccccc2Br)Cc2ccccc2Br)c(C#N)nc1N(Cc1ccccc1Br)Cc1ccccc1Br` has an absorption maximum (in ClC(Cl)Cl) of 485 nm.
`Cc1ccc(N2C(c3ccccc3N(C)C)=NC(c3ccccc3)C2c2ccccc2)cc1` (centres undefined) gave an absorption maximum (in Cc1ccccc1) of 275 nm.
In the case of `CCN(CC)c1ccc2cc(-c3nc4ccccc4n3-c3ccccc3)c(=O)oc2c1`, the absorption maximum (in ClCCl) is reported as 410 nm.
With `Cc1ccc(-c2nc(-c3cccc(O)c3)[nH]c2-c2ccc(C)cc2)cc1` the absorption maximum (in CO) was 300 nm.
With `COc1ccc(-c2nnc(-c3cc(-n4c5ccccc5c5ccccc54)c(-n4c5ccccc5c5ccccc54)cc3-c3nnc(-c4ccc(OC)cc4)o3)o2)cc1` the absorption maximum (in ClCCl) was 353 nm.
For `CCCN1C(=O)c2c3c(c4c(c2C1=O)CCc1cc(-c2ccc(N(C)C)cc2)c(OC)cc1-4)-c1cc(OC)c(-c2ccc(N(C)C)cc2)cc1CC3`, the absorption maximum (in C1CCCCC1) was 404 nm, the absorption maximum (in C1CCOC1) was 409 nm and the absorption maximum (in CCOC(C)=O) was 407 nm. For the same molecule, the absorption maximum (in Cc1ccccc1) was 412 nm.
Molecule `CCCCCCCCCCCCOc1cc(C(=O)Nc2ccc(-c3ccc4c(c3)C(=O)c3ccccc3-4)cc2)cc(OCCCCCCCCCCCC)c1OCCCCCCCCCCCC` has an absorption maximum (in C1CCOC1) of 432 nm.
With `CC1=C2C=CC(c3ccccc3)=[N+]2[B-](F)(F)n2c1ccc2-c1ccccc1` the absorption maximum (in ClCCl) was 544 nm.
Molecule `COc1nc(Nc2cc3ccc4cccc5ccc(c2)c3c45)nc(OC)n1` has an absorption maximum (in CC#N) of 336 nm, an absorption maximum (in CCCCOCCCC) of 336 nm and an absorption maximum (in CO) of 334 nm.
In the case of `c1ccc(-c2ccc(-c3ccccc3)cc2)cc1`, the absorption maximum (in C1CCOC1) is reported as 281 nm, the absorption maximum (in C1COCCO1) is reported as 276 nm and the absorption maximum (in CCO) is reported as 280 nm.
For `CC1(C)c2ccccc2N(c2ccc(-c3nc(C#N)c(C#N)nc3-c3ccc(N4c5ccccc5C(C)(C)c5ccccc54)cc3)cc2)c2ccccc21`, the absorption maximum (in Cc1ccccc1) was 436 nm.
With `COc1cccc(-c2nc3c([nH]2)C2=CC(=O)S[C@]2(C)[C@@]2(C)SC(=O)C=C32)c1OC` the absorption maximum (in CC#N) was 397 nm.
`CC(C)(C)c1ccc(C2=C(c3ccc(C(C)(C)C)cc3)C(c3ccc(C(C)(C)C)cc3)=[N+]3C2=C(c2ccccc2)c2c(-c4ccc(C(C)(C)C)cc4)c(-c4ccc(C(C)(C)C)cc4)c(-c4ccc(C(C)(C)C)cc4)n2[B-]3(F)F)cc1` showed an absorption maximum (in C1CCCCC1) of 589 nm, an absorption maximum (in C1CCOC1) of 585 nm and an absorption maximum (in CC#N) of 563 nm. The absorption maximum (in Cc1ccccc1) was 591 nm and the absorption maximum (in ClCCl) was 579 nm.
`Cc1cc(C)c(B(c2ccc(-c3cc4ccc5cccc6ccc(c3)c4c56)cc2)c2c(C)cc(C)cc2C)c(C)c1` gave an absorption maximum (in Cc1ccccc1) of 378 nm.
For `c1ccc2c(c1)ccc1ncc3ccc4cnccc4c3c12`, the absorption maximum (in CC#N) was 403 nm.
